{
  "source": "the supplement of paper PMC10307832",
  "experiment_in_all_cases": "relative viability (nuclei count vs DMSO), 5 days (fraction); higher = more cells survive",
  "key": {"[1]": {"compound": "CCOC1=CC=CC=C1N=NC2=C(NN(C2=O)C3=NC(=CS3)C4=CC=CC=C4)C [BAM7] + CCNC(=O)c1noc(-c2cc(C(C)C)c(O)cc2O)c1-c1ccc(CN2CCOCC2)cc1 [Luminespib] (partner 0.01 µM)", "how_it_was_run": "(§1)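 Nuclei were stained with Hoechst during a one-step fixation (final 0.05% Triton X-100, 1% formaldehyde, 1 ug/ml Hoechst) carried out 5 days after dosing, then counted on 4× images. The cells, lung cancer lines in 1536-well plates, had been dosed by pin tool the day after seeding with one drug alone or a fixed anchor-drug dose plus five library-drug doses (not always all listed) in √10 steps. Relative viability is the nuclei count in treated wells divided by that in vehicle wells, and each value is the median of duplicate plates.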"}, "[2]": {"compound": "CCOC1=CC=CC=C1N=NC2=C(NN(C2=O)C3=NC(=CS3)C4=CC=CC=C4)C [BAM7] + CC(C)C[C@H](NC(=O)[C@H](Cc1ccccc1)NC(=O)c1cnccn1)B(O)O [Bortezomib] (partner 0.002 µM)", "how_it_was_run": "as §1"}, "[3]": {"compound": "CCOC1=CC=CC=C1N=NC2=C(NN(C2=O)C3=NC(=CS3)C4=CC=CC=C4)C [BAM7] + Nc1nc2[nH]cc(CCc3ccc(C(=O)N[C@@H](CCC(=O)O)C(=O)O)cc3)c2c(=O)[nH]1 [Pemetrexed] (partner 0.2 µM)", "how_it_was_run": "as §1"}, "[4]": {"compound": "CCn1c(-c2nonc2N)nc2c(C#CC(C)(C)O)ncc(OC[C@H]3CCCNC3)c21 + Cc1cc(Nc2cc(N3CCN(C)CC3)nc(Sc3ccc(NC(=O)C4CC4)cc3)n2)n[nH]1 [Tozasertib] (partner 0.1 µM)", "how_it_was_run": "as §1"}},
  "data": [
    {"cell line": "UMC-11", "values": [
      {"measurement": "relative viability", "setting": "[1]; first compound 0.5 µM", "value": 1.07},
      {"measurement": "relative viability", "setting": "[1]; first compound 5 µM", "value": 1.11},
      {"measurement": "relative viability", "setting": "[1]; first compound 15.81 µM", "value": 1.1},
      {"measurement": "relative viability", "setting": "[1]; first compound 50 µM", "value": 0.991},
      {"measurement": "relative viability", "setting": "[2]; first compound 0.5 µM", "value": 0.78},
      {"measurement": "relative viability", "setting": "[2]; first compound 5 µM", "value": 0.89},
      {"measurement": "relative viability", "setting": "[2]; first compound 15.81 µM", "value": 0.67},
      {"measurement": "relative viability", "setting": "[2]; first compound 50 µM", "value": 0.905},
      {"measurement": "relative viability", "setting": "[3]; first compound 0.5 µM", "value": 0.85},
      {"measurement": "relative viability", "setting": "[3]; first compound 5 µM", "value": 0.912},
      {"measurement": "relative viability", "setting": "[3]; first compound 15.81 µM", "value": 0.847},
      {"measurement": "relative viability", "setting": "[3]; first compound 50 µM", "value": 0.839},
      {"measurement": "relative viability", "setting": "[4]; first compound 0.01 µM", "value": 0.198},
      {"measurement": "relative viability", "setting": "[4]; first compound 0.03162 µM", "value": 0.209},
      {"measurement": "relative viability", "setting": "[4]; first compound 0.1 µM", "value": 0.194},
      {"measurement": "relative viability", "setting": "[4]; first compound 0.3162 µM", "value": 0.201},
      {"measurement": "relative viability", "setting": "[4]; first compound 1 µM", "value": 0.197}
    ]}
  ]
}
